Data: BigSolDB 2.1

O=P(CCCO)(CCCO)CCCO
Settings	solubility (mole fraction)
in acetone, 293.15 K	0.0007
in acetone, 298.14 K	0.00101
in acetone, 303.16 K	0.00151
in acetone, 308.21 K	0.00217
in acetone, 313.17 K	0.00303
in acetone, 318.12 K	0.00425
in acetone, 323.15 K	0.00593
in ethanol, 298.12 K	0.0226
in ethanol, 303.22 K	0.0286
in ethanol, 308.17 K	0.036
in ethanol, 313.1 K	0.0456
in ethanol, 318.08 K	0.0569
in ethanol, 323.11 K	0.0718
in ethanol, 328.16 K	0.0919
in isobutanol, 293.11 K	0.0122
in isobutanol, 298.21 K	0.0154
in isobutanol, 303.13 K	0.019
in isobutanol, 308.15 K	0.0234
in isobutanol, 313.17 K	0.0291
in isobutanol, 318.14 K	0.0357
in isobutanol, 323.23 K	0.0436
in isopropanol, 298.13 K	0.0155
in isopropanol, 303.21 K	0.0187
in isopropanol, 308.15 K	0.0224
in isopropanol, 313.17 K	0.027
in isopropanol, 318.19 K	0.0321
in isopropanol, 323.11 K	0.0386
in isopropanol, 328.18 K	0.0465
in methanol, 298.11 K	0.0527
in methanol, 303.15 K	0.0702
in methanol, 308.18 K	0.091
in methanol, 313.1 K	0.115
in methanol, 318.22 K	0.144
in methanol, 323.14 K	0.176
in methanol, 328.11 K	0.21
in n-butanol, 298.13 K	0.011
in n-butanol, 303.21 K	0.0138
in n-butanol, 308.11 K	0.0163
in n-butanol, 313.17 K	0.02
in n-butanol, 318.15 K	0.0252
in n-butanol, 323.1 K	0.0302
in n-butanol, 328.23 K	0.0369
in n-propanol, 298.16 K	0.0369
in n-propanol, 303.11 K	0.0438
in n-propanol, 308.13 K	0.0517
in n-propanol, 313.12 K	0.062
in n-propanol, 318.16 K	0.0731
in n-propanol, 323.21 K	0.0866
in n-propanol, 328.18 K	0.102
